Experimental data taken from patent publication US20240116973A1, “MODIFIED OLIGONUCLEOTIDES” (ALNYLAM PHARMACEUTICALS, INC., priority 2021, published 2024).

What was measured:
[1] = biological target: T1, human mitochondrial RNA polymerase POLRMT (Homo sapiens, UniProt O00411); experiment: POLRMT primer extension (polymerase incorporation) assay; type: biochemical; details: single NTP 100 μM or 1 mM, 37° C., 30 min, IEX-HPLC fluorescence
T1 construct: purchased Indigo Biosciences MV100-40
Excerpt: Purified exonuclease activity-deficient human mitochondrial DNA polymerase POLG was obtained from the lab of Prof. William Copeland (National Institute of Environmental Health Science, Durham, NC, USA). Human mitochondrial POLRMT was purchased from Indigo Biosciences (Cat #MV100-40). Atto-425-labelled DNA and RNA primers were synthesized in house; DNA templates were obtained from IDT.
The assays are designed for single NT addition on appropriate template/primer sets: • Atto-425 labeled primers allow for high sensitivity fluorescence detection with very low reaction volumes • Analytical IEX-HPLC with fluorescence detection for optimal resolution of primer-extended products—especially important in competition mixtures • Assays can be applied for the assessment of incorporation efficiency of novel chemistries.
Reaction conditions for the POLG incorporation assays were as follows: 100 nM DNA template, 100 nM 5′-Atto-425-labelled DNA primer, 40 units POLG, 100 μM or 1 mM NTP substrate in 20 mM Tris-HCl, pH 8.0, 2 mM β-mercaptoethanol, 0.1 mg/mL bovine serum albumin, 10 mM MgCl2. Reactions were incubated at 37° C. for 30 min. Reactions were quenched by heating the reaction mixture to 85° C. for 5 min. The reaction mixtures were diluted with water to a final primer concentration of approximately 2.5 nM and analysed by IEX-HPLC with an attached fluorescence detector (excitation wavelength: 436 nm, emission wavelength: 485 nm) and a Dionex BioLCDNAPac PA200 4×250 mm (8 μm particle size) column. […] The reaction mixtures were diluted with water to a final primer concentration of approximately 2.5 nM and analysed by IEX-HPLC as described above, except that the gradient was 35% to 40% buffer B in 16 min.
Recognition of 2′F—N6MeA NTPs by POLRMT and PolGamma: Incorporation of 2′F—N6MeA, RNA, and 2′-F-RNA NTP monomers were evaluated in a previously reported in vitro primer extension assays catalyzed by the human mitochondrial RNA polymerase POLRMT and human mitochondrial DNA polymerase PolGamma. […]

[2] = tested on: adenosine deaminase; experiment: Adenosine deaminase assay in human liver S9 fractions; type: in vitro ADME; details: 1 μM nucleoside, 1 mg/mL human liver S9, pH 7.4, with/without 1 mM NADPH, up to 2 hours, LC-MS
Excerpt: In the adenosine deaminase assays, 2′-fluoroadenosie was used as a positive control for the deaminase activity: […]

[3] = biological target: T2, human mitochondrial DNA polymerase POLG (Homo sapiens, UniProt P54098, D198A/E200A); experiment: POLG (Pol-γ) primer extension (polymerase incorporation) assay; type: biochemical; details: single NTP 100 μM or 1 mM, 37° C., 30 min, IEX-HPLC fluorescence
T2 construct: lab of Prof; William Copeland (National Institute of Environmental Health Science, Durham, NC, USA)
T2 sequence (P54098 26-1239 D198A/E200A limits assumed): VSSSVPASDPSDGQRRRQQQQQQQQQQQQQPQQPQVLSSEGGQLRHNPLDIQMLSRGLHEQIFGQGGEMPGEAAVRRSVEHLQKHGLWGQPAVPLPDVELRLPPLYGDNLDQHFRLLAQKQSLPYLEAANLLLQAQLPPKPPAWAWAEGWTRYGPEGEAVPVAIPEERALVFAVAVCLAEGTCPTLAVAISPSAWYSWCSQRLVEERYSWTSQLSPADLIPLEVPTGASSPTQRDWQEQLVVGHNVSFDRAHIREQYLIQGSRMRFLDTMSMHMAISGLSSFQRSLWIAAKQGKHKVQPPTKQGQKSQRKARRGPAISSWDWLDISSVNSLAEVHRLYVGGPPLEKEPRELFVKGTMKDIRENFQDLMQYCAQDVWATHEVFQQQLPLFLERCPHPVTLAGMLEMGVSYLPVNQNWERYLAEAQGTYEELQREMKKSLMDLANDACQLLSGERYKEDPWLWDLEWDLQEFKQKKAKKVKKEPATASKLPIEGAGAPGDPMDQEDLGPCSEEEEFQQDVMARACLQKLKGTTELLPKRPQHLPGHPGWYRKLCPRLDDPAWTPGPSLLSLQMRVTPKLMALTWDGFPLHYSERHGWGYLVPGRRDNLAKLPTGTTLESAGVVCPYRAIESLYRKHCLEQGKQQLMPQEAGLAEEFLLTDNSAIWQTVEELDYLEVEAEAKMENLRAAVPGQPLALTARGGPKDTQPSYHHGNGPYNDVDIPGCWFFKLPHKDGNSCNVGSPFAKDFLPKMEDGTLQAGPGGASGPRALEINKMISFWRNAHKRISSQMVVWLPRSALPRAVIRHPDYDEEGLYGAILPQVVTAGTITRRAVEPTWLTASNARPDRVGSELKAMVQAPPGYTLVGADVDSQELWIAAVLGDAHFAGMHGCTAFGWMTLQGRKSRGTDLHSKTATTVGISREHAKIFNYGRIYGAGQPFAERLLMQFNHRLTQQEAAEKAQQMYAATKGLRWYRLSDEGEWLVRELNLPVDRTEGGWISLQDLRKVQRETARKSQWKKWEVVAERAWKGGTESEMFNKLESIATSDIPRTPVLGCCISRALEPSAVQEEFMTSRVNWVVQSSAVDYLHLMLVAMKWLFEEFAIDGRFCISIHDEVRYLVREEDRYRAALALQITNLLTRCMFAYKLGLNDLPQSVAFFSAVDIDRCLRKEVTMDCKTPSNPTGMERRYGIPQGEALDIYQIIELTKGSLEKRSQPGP
Method: Purified exonuclease activity-deficient human mitochondrial DNA polymerase POLG was obtained from the lab of Prof. William Copeland (National Institute of Environmental Health Science, Durham, NC, USA). Human mitochondrial POLRMT was purchased from Indigo Biosciences (Cat #MV100-40).
Buffer A was 20 mM sodium phosphate, 15% ACN, pH 11; and buffer B was 20 mM sodium phosphate, 15% ACN, 1 M NaBr, pH 11. […] Briefly, a 5′-fluorescently labeled primer and template were incubated […], and the primer extension reaction was monitored via fluorescence detection ion-exchange high-performance liquid chromatography.

T1 sequence (O00411 42-1230): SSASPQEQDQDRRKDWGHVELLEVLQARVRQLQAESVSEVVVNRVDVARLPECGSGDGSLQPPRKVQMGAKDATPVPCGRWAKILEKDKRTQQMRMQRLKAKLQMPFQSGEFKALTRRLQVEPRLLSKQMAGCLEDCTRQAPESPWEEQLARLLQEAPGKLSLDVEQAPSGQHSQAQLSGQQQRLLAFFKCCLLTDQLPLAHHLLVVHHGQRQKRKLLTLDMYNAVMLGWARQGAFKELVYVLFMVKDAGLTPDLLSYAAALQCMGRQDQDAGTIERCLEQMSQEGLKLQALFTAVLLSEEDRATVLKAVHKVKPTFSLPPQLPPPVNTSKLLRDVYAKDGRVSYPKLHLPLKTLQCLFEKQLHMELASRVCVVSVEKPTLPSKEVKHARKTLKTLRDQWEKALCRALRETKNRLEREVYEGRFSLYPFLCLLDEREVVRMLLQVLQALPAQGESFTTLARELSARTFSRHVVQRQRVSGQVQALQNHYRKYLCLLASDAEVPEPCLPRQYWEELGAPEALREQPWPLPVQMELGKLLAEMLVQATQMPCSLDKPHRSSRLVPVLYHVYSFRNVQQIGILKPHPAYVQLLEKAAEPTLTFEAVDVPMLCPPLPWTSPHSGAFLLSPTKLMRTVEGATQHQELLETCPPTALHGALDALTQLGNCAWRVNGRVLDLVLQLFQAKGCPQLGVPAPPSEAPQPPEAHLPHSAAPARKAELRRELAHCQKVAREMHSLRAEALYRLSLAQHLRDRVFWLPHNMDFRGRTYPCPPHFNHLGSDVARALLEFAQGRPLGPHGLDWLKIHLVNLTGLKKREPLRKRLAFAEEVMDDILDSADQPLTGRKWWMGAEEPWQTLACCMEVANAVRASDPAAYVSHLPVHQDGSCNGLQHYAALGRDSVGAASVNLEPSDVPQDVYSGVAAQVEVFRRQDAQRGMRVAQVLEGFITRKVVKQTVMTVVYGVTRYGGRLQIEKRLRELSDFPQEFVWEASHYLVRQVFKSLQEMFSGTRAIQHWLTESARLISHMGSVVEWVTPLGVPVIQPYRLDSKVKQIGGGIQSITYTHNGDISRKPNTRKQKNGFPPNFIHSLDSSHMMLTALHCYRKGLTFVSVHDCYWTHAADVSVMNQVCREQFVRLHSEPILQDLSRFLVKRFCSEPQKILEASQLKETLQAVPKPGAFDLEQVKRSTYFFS

Deaminated metabolite (adenine to inosine conversion) [2]	SMILES	PolRMT Incorporation [1]	PolRMT Incorporation ([1]; listed as 2′F—N6MeA NTP)	Pol-γ Incorporation [3]	Pol-γ Incorporation ([3]; listed as 2′F—N6MeA NTP)
	Nc1ncnc2c1ncn2[C@@H]1O[C@H](COP(=O)(O)OP(=O)(O)OP(=O)(O)O)[C@@H](O)[C@H]1O [rATP, reference compound]	efficiently incorporated			
formation of deaminated metabolite	Nc1ncnc2c1ncn2[C@@H]1O[C@H](CO)[C@H](O)C1F (stereo partly shown) [2′-fluoro-adenosine, reference compound]				
no deaminated metabolites were observed	COC1C(O)[C@@H](CO)O[C@H]1n1cnc2c(NC(C)C)ncnc21 (stereo partly drawn) [Compound 45, (2R,5R)-2-(hydroxymethyl)-5-[6-(isopropylamino)purin-9-yl]-4-methoxy-tetrahydrofuran-3-ol]				
	CNc1ncnc2c1ncn2[C@@H]1O[C@H](COP(=O)(O)OP(=O)(O)OP(=O)(O)O)[C@@H](O)[C@H]1F [2′Fluoro-N6Methyl-Atp triphosphate, ((2R,3R,4R,5R)-4-fluoro-3-hydroxy-5-(6-(methylamino)-9H-purin-9-yl)tetrahydrofuran-2-yl)methyl triphosphate]	Yes	good substrate	Yes	good substrate
